According to ChEMBL document CHEMBL2163292, “1,2,3-Triazole-containing uracil derivatives with excellent pharmacokinetics as a novel class of potent human deoxyuridine triphosphatase inhibitors” (J Med Chem, 2012):

Assays:
[1] = Cytotoxicity against human HeLaS3 cells incubated for 72 hrs by crystal violet assay; assay type: functional, cell-based; conditions: HeLa S3, 72 h
[2] = target: T1, Deoxyuridine 5'-triphosphate nucleotidohydrolase, mitochondrial (Homo sapiens, UniProt P33316); assay: Inhibition of human dUTPase assessed as reduction in [5-3H]dUMP production incubated for 15 mins by HPLC
T1 sequence (P33316 whole entry): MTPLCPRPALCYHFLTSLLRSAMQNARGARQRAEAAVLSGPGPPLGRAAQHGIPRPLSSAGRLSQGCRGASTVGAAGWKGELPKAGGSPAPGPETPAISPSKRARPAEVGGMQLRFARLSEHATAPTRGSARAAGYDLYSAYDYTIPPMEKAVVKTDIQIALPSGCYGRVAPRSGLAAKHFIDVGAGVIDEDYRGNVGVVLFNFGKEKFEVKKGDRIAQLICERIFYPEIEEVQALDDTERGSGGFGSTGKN

Mus musculus [3] = assay: Metabolic stability in Balb/cA mouse assessed as metabolite formation at 50 mg/kg, po administered as single dose measured after 0.5 hrs by reverse-phase ultra performance liquid chromatography; assay type: ADME, organism-based; design: dose 50 mg/kg, route oral; conditions: in vivo
[4] = Tmax in Balb/cA mouse at 50 mg/kg, po administered as single dose by reverse-phase ultra performance liquid chromatography; assay type: ADME, organism-based; design: dose 50 mg/kg, route oral; conditions: in vivo
[5] = Cmax in Balb/cA mouse at 50 mg/kg, po administered as single dose by reverse-phase ultra performance liquid chromatography; assay type: ADME, organism-based; design: dose 50 mg/kg, route oral; conditions: in vivo
[6] = AUC (0 to t) in Balb/cA mouse at 50 mg/kg, po administered as single dose by reverse-phase ultra performance liquid chromatography; assay type: ADME, organism-based; design: dose 50 mg/kg, route oral; conditions: plasma
[7] = Half life in Balb/cA mouse at 50 mg/kg, po administered as single dose by reverse-phase ultra performance liquid chromatography; assay type: ADME, organism-based; design: dose 50 mg/kg, route oral; conditions: in vivo
MX1 [8] = assay: Potentiation of 5-FU induced antitumour activity against human MX1 cells xenografted in Balb/cA JcL-nu mouse assessed as tumor growth inhibition at 300 mg/kg/day, po for 14 days co-treated with 5-FU at 15 mg/kg/day for 14 days and measured twice weekly relative to untreated control; assay type: functional
MX1 [9] = assay: Antitumor activity against human MX1 cells xenografted in Balb/cA JcL-nu mouse assessed as tumor growth inhibition at 300 mg/kg/day, po for 14 days and measured twice a week relative to untreated control; assay type: functional; conditions: MX1, 336 h
Mus musculus [10] = assay: Toxicity in Balb/cA JcL-nu mouse xenografted with human MX1 cells assessed as body weight loss at 300 mg/kg/day, po for 14 days co-treated with 5-FU at 15 mg/kg/day for 14 days and measured twice a week relative to untreated control; assay type: organism-based; conditions: in vivo, 336 h
MX1 [11] = assay: Antitumor activity against human MX1 cells xenografted in Balb/cA JcL-nu mouse assessed as tumor growth inhibition at 15 mg/kg/day, […] as continuous infusion using osmotic pump and measured twice a week relative to untreated control; assay type: functional

SMILES | IC50 [2] | also measured
O=c1ccn(CCCCc2cnnn2CCc2cccc(OCC3CC3)c2)c(=O)[nH]1 | 210 nM | EC50 [1]: 84000 nM
C[C@@H](Cn1nncc1CCCCn1ccc(=O)[nH]c1=O)c1cccc(OCC2CC2)c1 | 58 nM | 
C[C@H](Cn1nncc1CCCCn1ccc(=O)[nH]c1=O)c1cccc(OCC2CC2)c1 | 870 nM | 
CC[C@@H](Cn1nncc1CCCCn1ccc(=O)[nH]c1=O)c1cccc(OCC2CC2)c1 | 29 nM | Stability (Mus musculus [3]): Unstable; EC50 [1]: 22000 nM; Tmax [4]: 30 min; Cmax [5]: 8.69 µM; AUC(0-t) [6]: 4.56 µM·h; half-life [7]: 30 min
CC[C@H](Cn1nncc1CCCCn1ccc(=O)[nH]c1=O)c1cccc(OCC2CC2)c1 | 720 nM | 
CC[C@@](O)(Cn1nncc1CCCCn1ccc(=O)[nH]c1=O)c1cccc(OCC2CC2)c1 | 150 nM | Tmax [4]: 30 min; Cmax [5]: 62.1 µM; AUC(0-t) [6]: 67.4 µM·h; half-life [7]: 60 min
CC[C@@](O)(Cn1nncc1CCCCn1ccc(=O)[nH]c1=O)c1cccc(OC2CCCC2)c1 | 210 nM | 
CCOc1cccc([C@@](O)(CC)Cn2nncc2CCCCn2ccc(=O)[nH]c2=O)c1 | > 1000 nM | 
CC[C@@](O)(Cn1nncc1CCCCn1ccc(=O)[nH]c1=O)c1cccc(OCC2(C)CC2)c1 | 630 nM | 
CC[C@@](O)(Cn1nncc1CCCCn1ccc(=O)[nH]c1=O)c1cccc(OCC(C)C)c1 | 550 nM | 
C=CCOc1cccc([C@@](O)(CC)Cn2nncc2CCCCn2ccc(=O)[nH]c2=O)c1 | 360 nM | 
CC[C@@](O)(Cn1nncc1CCCCn1ccc(=O)[nH]c1=O)c1cccc(OC2CCOCC2)c1 | > 1000 nM | 
CC[C@@](O)(Cn1nncc1CCCCn1ccc(=O)[nH]c1=O)c1cccc(OCC2CCC2)c1 | 150 nM | 
CC[C@](O)(Cn1nncc1CCCCn1ccc(=O)[nH]c1=O)c1cccc(OCC2CC2)c1 | > 1000 nM | 
CC[C@@](O)(Cn1nncc1CCOCn1ccc(=O)[nH]c1=O)c1cccc(OCC2CC2)c1 | 170 nM | 
CC[C@@](O)(Cn1nncc1CCCCn1ccc(=O)[nH]c1=O)c1ccc(F)c(OCC2CC2)c1 | 67 nM | Stability (Mus musculus [3]): Stable; EC50 [1]: 41000 nM; inhibition (INH) (MX1 [8]): 84.9%; Tmax [4]: 60 min; Cmax [5]: 49.8 µM; AUC(0-t) [6]: 57.3 µM·h; inhibition in vivo at 300 mg/kg/day (MX1 [9]): -23.2%; half-life [7]: 60 min; Activity (Mus musculus [10]): Non-toxic
CC[C@](O)(Cn1nncc1CCCCn1ccc(=O)[nH]c1=O)c1ccc(F)c(OCC2CC2)c1 | 350 nM | 
O=c1ccn(CCCc2cnnn2CC(c2ccccc2)c2ccccc2)c(=O)[nH]1 | 1300 nM | EC50 [1]: > 100000 nM
O=c1ccn(CCCCc2cnnn2CC(c2ccccc2)c2ccccc2)c(=O)[nH]1 | 740 nM | 
O=c1ccn(CCCc2cnnn2C(c2ccccc2)c2ccccc2)c(=O)[nH]1 | > 10000 nM | 
O=c1ccn(CCCCc2cnnn2C(c2ccccc2)c2ccccc2)c(=O)[nH]1 | 1600 nM | 
O=c1ccn(CCCc2cnnn2CCc2ccccc2)c(=O)[nH]1 | > 10000 nM | 
O=c1ccn(CCCCc2cnnn2CCc2ccccc2)c(=O)[nH]1 | 3500 nM | 
COc1ccccc1CCn1nncc1CCCCn1ccc(=O)[nH]c1=O | 5700 nM | 
COc1cccc(CCn2nncc2CCCCn2ccc(=O)[nH]c2=O)c1 | 4100 nM | 
COc1ccc(CCn2nncc2CCCCn2ccc(=O)[nH]c2=O)cc1 | > 10000 nM | 
O=c1ccn(CCCCc2cnnn2CCc2ccccc2OCC2CC2)c(=O)[nH]1 | 390 nM | 
O=c1[nH]cc(F)c(=O)[nH]1 [FLUOROURACIL] |  | inhibition in vivo at 15 mg/kg/day (MX1 [11]): 20%
